Measurements: patent publication US20020137929A1, “1 - (3-heterocyclylphenyl) isothiourea, -isourea, -guanidine and -amidine herbicidal agents” (Intellectual Property Department, BASF Aktiengesellschaft, priority 1998, published 2002)

Experiments:
[1] = test system: ECHORC (Watergrass (Calif.)); assay: Preemergence weed control under flooded paddy conditions; assay type: in vivo, Echinochloa oryzoides; settings: rated 3-4 weeks after treatment
How it was run: (§1)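 Seeds or propagules sown in top 0.5 cm of silt loam soil, flooded 1.5 to 3 cm above surface throughout. Compound in 50/50 v/v aqueous/acetone pipetted into flood water at about 0.0313 to 0.500 kg/ha. Visual 0-9 rating versus control after three to four weeks in greenhouse.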

SETVI (Foxtail, Green) [2] = assay: Postemergence herbicidal evaluation; assay type: in vivo, Setaria viridis; settings: postemergence
How it was run: (§2)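 Visual 0–9 rating versus control (stand, vigor, malformation, size, chlorosis, overall appearance), taken four to five weeks post-spray. Two-week-old seedlings received roughly 0.0156–0.500 kg/ha active in acetone/water (50/50) with 0.5% TWEEN 20 via nozzle at 40 psi.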

CYPIR (Rice Flatsedge) = assay: Preemergence weed control under flooded paddy conditions; assay type: in vivo, Cyperus iria; settings: rated 3-4 weeks after treatment
How it was run: as §1

ZEAMX (Corn, Field) [3] = assay: Postemergence herbicidal evaluation; assay type: in vivo, Zea mays; settings: postemergence
How it was run: as §2

SETVI (Foxtail, Green) [4] = assay: Preemergence herbicidal evaluation; assay type: in vivo, Setaria viridis; settings: rated 4-5 weeks after treatment; for SETVI rating: preemergence, 0-9 scale
How it was run: (§3)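 Rating at 4–5 wk post-spray on a 0–9 visual scale vs control. Application: aqueous acetone, ~0.0156–0.500 kg/ha, to soil surface after seeding, preemergence.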

ECHCG (Barnyardgrass) = assay: Preemergence herbicidal evaluation; assay type: in vivo, Echinochloa crus-galli; settings: rated 4-5 weeks after treatment; for ECHCG rating: preemergence, 0-9 scale
How it was run: as §3

CYPSE (Flatsedge) = assay: Preemergence weed control under flooded paddy conditions; assay type: in vivo, Cyperus serotinus; settings: rated 3-4 weeks after treatment
How it was run: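 Visual injury scored 0-9 against control three to four weeks post-treatment, greenhouse-grown. Application: acetone/water (50/50) solutions dosed directly into flood water (1.5-3 cm over silt loam, planted top 0.5 cm), roughly 0.0313 to 0.500 kg/ha active ingredient.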

[5] = test system: TRZAWR (Wheat, Winter, cv Riband); assay: Preemergence herbicidal evaluation; assay type: in vivo, Triticum aestivum; settings: rated 4-5 weeks after treatment; for TRZAWR rating: preemergence, 0-9 scale
How it was run: as §3

ORYSAT (Rice, Tebonnet) = assay: Postemergence herbicidal evaluation; assay type: in vivo, Oryza sativa, (L.) Tebonnet; settings: postemergence
How it was run: as §2

ZEAMX (Corn, Field) [6] = assay: Preemergence herbicidal evaluation; assay type: in vivo, Zea mays; settings: rated 4-5 weeks after treatment; for ZEAMX rating: preemergence, 0-9 scale
How it was run: as §3

**Q.** With C=CCOC(=O)CN1C(=O)CSC1=Nc1cc(-n2c(=O)cc(C(F)(F)F)n(C)c2=O)c(F)cc1Cl [Compound 106, Allyl 2-{{2-chloro-5-[3,6-dihydro-3-methyl-2,6-dioxo-4-(trifluoromethyl)-1(2H)-pyrimidinyl]-4-fluorophenyl}imino}-4-oxo-3-thiazolidineacetate] as the compound, how does the “ECHORC herbicidal effect rating” value ([1]; 0.0313 kg/ha) read?
**A.** The value was 2.0.

**Q.** And the “ECHORC herbicidal effect rating” value ([1]; 0.0625 kg/ha)?
**A.** Its value is 4.0.

**Q.** And the “ECHORC herbicidal effect rating” value ([1]; 0.1250 kg/ha)?
**A.** The value was 5.0.

**Q.** What about the “ECHORC herbicidal effect rating” value ([1]; 0.2500 kg/ha) of the same compound?
**A.** The value was 7.0.

**Q.** And the “herbicidal rating SETVI” value (SETVI (Foxtail, Green) [2]; rate 0.0158 kg/ha)?
**A.** Its value is 4.0.

**Q.** What about the “herbicidal rating SETVI” value (SETVI (Foxtail, Green) [2]; rate 0.0315 kg/ha) of the same compound?
**A.** Its value is 3.0.

**Q.** What about the “herbicidal rating SETVI” value (SETVI (Foxtail, Green) [2]; rate 0.0630 kg/ha) of the same compound?
**A.** The value was 9.0.

**Q.** And the “CYPIR herbicidal effect rating” value (CYPIR (Rice Flatsedge); 0.0313 kg/ha)?
**A.** The value was 5.0.

**Q.** What about the “CYPIR herbicidal effect rating” value (CYPIR (Rice Flatsedge); 0.0625 kg/ha) of the same compound?
**A.** Its value is 6.0.

**Q.** And the “CYPIR herbicidal effect rating” value (CYPIR (Rice Flatsedge); 0.1250 kg/ha)?
**A.** The value was 6.0.

**Q.** And the “CYPIR herbicidal effect rating” value (CYPIR (Rice Flatsedge); 0.2500 kg/ha)?
**A.** The value was 9.0.

**Q.** And the “herbicidal rating ZEAMX” value (ZEAMX (Corn, Field) [3]; rate 0.0158 kg/ha)?
**A.** Its value is 5.0.

**Q.** What about the “herbicidal rating ZEAMX” value (ZEAMX (Corn, Field) [3]; rate 0.0315 kg/ha) of the same compound?
**A.** The value was 6.5.

**Q.** And the “herbicidal rating ZEAMX” value (ZEAMX (Corn, Field) [3]; rate 0.0630 kg/ha)?
**A.** Its value is 7.0.

**Q.** What about the SETVI rating (SETVI (Foxtail, Green) [4]; 0.0313 kg/ha) of the same compound?
**A.** The SETVI rating was 0.5.

**Q.** What about the SETVI rating (SETVI (Foxtail, Green) [4]; 0.0625 kg/ha) of the same compound?
**A.** The SETVI rating was 4.5.

**Q.** What about the SETVI rating (SETVI (Foxtail, Green) [4]; 0.1250 kg/ha) of the same compound?
**A.** Its SETVI rating is 9.0.

**Q.** And the SETVI rating (SETVI (Foxtail, Green) [4]; 0.2500 kg/ha)?
**A.** The SETVI rating was 9.0.

**Q.** And the “Preemergence herbicidal rating SETVI” value (SETVI (Foxtail, Green) [4]; rate 0.0156 kg/ha)?
**A.** Its value is 0.0.

**Q.** What about the ECHCG rating (ECHCG (Barnyardgrass); 0.0313 kg/ha) of the same compound?
**A.** The ECHCG rating was 1.0.

**Q.** And the ECHCG rating (ECHCG (Barnyardgrass); 0.0625 kg/ha)?
**A.** Its ECHCG rating is 1.5.

**Q.** What about the ECHCG rating (ECHCG (Barnyardgrass); 0.1250 kg/ha) of the same compound?
**A.** Its ECHCG rating is 2.0.

**Q.** What about the ECHCG rating (ECHCG (Barnyardgrass); 0.2500 kg/ha) of the same compound?
**A.** The ECHCG rating was 7.0.

**Q.** And the “Preemergence herbicidal rating ECHCG” value (ECHCG (Barnyardgrass); rate 0.0156 kg/ha)?
**A.** Its value is 0.0.

**Q.** What about the “CYPSE herbicidal effect rating” value (CYPSE (Flatsedge); 0.0313 kg/ha) of the same compound?
**A.** Its value is 0.0.

**Q.** And the “CYPSE herbicidal effect rating” value (CYPSE (Flatsedge); 0.0625 kg/ha)?
**A.** The value was 0.0.

**Q.** What about the “CYPSE herbicidal effect rating” value (CYPSE (Flatsedge); 0.1250 kg/ha) of the same compound?
**A.** Its value is 2.0.

**Q.** What about the “CYPSE herbicidal effect rating” value (CYPSE (Flatsedge); 0.2500 kg/ha) of the same compound?
**A.** The value was 6.0.

**Q.** What about the TRZAWR rating ([5]; 0.0313 kg/ha) of the same compound?
**A.** Its TRZAWR rating is 0.0.

**Q.** What about the TRZAWR rating ([5]; 0.0625 kg/ha) of the same compound?
**A.** The TRZAWR rating was 2.0.

**Q.** What about the TRZAWR rating ([5]; 0.1250 kg/ha) of the same compound?
**A.** The TRZAWR rating was 3.0.

**Q.** What about the TRZAWR rating ([5]; 0.2500 kg/ha) of the same compound?
**A.** Its TRZAWR rating is 5.0.

**Q.** What about the “Preemergence herbicidal rating TRZAWR” value ([5]; rate 0.0156 kg/ha) of the same compound?
**A.** Its value is 0.0.

**Q.** And the “herbicidal rating ORYSAT” value (ORYSAT (Rice, Tebonnet); rate 0.0158 kg/ha)?
**A.** The value was 2.0.

**Q.** What about the “herbicidal rating ORYSAT” value (ORYSAT (Rice, Tebonnet); rate 0.0315 kg/ha) of the same compound?
**A.** The value was 2.5.

**Q.** And the “herbicidal rating ORYSAT” value (ORYSAT (Rice, Tebonnet); rate 0.0630 kg/ha)?
**A.** Its value is 4.0.

**Q.** What about the ZEAMX rating (ZEAMX (Corn, Field) [6]; 0.0313 kg/ha) of the same compound?
**A.** Its ZEAMX rating is 1.0.

**Q.** And the ZEAMX rating (ZEAMX (Corn, Field) [6]; 0.0625 kg/ha)?
**A.** Its ZEAMX rating is 2.5.

**Q.** And the ZEAMX rating (ZEAMX (Corn, Field) [6]; 0.1250 kg/ha)?
**A.** The ZEAMX rating was 4.0.

**Q.** What about the ZEAMX rating (ZEAMX (Corn, Field) [6]; 0.2500 kg/ha) of the same compound?
**A.** The ZEAMX rating was 5.0.

**Q.** What about the “Preemergence herbicidal rating ZEAMX” value (ZEAMX (Corn, Field) [6]; rate 0.0156 kg/ha) of the same compound?
**A.** The value was 0.0.

**Q.** What does the source list for COCCOC(=O)CN1C(=O)CSC1=Nc1cc(-n2c(=O)cc(C(F)(F)F)n(C)c2=O)c(F)cc1Cl [Compound 107, 2-Methoxyethyl 2-{{2-chloro-5-[3,6-dihydro-3-methyl-2,6-dioxo-4-(trifluoromethyl)-1(2H)-pyrimidinyl]-4-fluorophenyl}imino}-4-oxo-3-thiazolidineacetate]?
**A.** ECHORC herbicidal effect rating ([1]; 0.0313 kg/ha): 0.0; ECHORC herbicidal effect rating ([1]; 0.0625 kg/ha): 4.0; ECHORC herbicidal effect rating ([1]; 0.1250 kg/ha): 4.0; ECHORC herbicidal effect rating ([1]; 0.2500 kg/ha): 4.0; herbicidal rating SETVI (SETVI (Foxtail, Green) [2]; rate 0.0158 kg/ha): 1.0; herbicidal rating SETVI (SETVI (Foxtail, Green) [2]; rate 0.0315 kg/ha): 9.0; herbicidal rating SETVI (SETVI (Foxtail, Green) [2]; rate 0.0630 kg/ha): 9.0; CYPIR herbicidal effect rating (CYPIR (Rice Flatsedge); 0.0313 kg/ha): 0.0; CYPIR herbicidal effect rating (CYPIR (Rice Flatsedge); 0.0625 kg/ha): 0.0; CYPIR herbicidal effect rating (CYPIR (Rice Flatsedge); 0.1250 kg/ha): 4.0; CYPIR herbicidal effect rating (CYPIR (Rice Flatsedge); 0.2500 kg/ha): 7.0; herbicidal rating ZEAMX (ZEAMX (Corn, Field) [3]; rate 0.0158 kg/ha): 4.0; herbicidal rating ZEAMX (ZEAMX (Corn, Field) [3]; rate 0.0315 kg/ha): 6.0; herbicidal rating ZEAMX (ZEAMX (Corn, Field) [3]; rate 0.0630 kg/ha): 7.0; Preemergence herbicidal rating SETVI (SETVI (Foxtail, Green) [4]; rate 0.0313 kg/ha): 0.0; Preemergence herbicidal rating SETVI (SETVI (Foxtail, Green) [4]; rate 0.0625 kg/ha): 1.0; Preemergence herbicidal rating SETVI (SETVI (Foxtail, Green) [4]; rate 0.1250 kg/ha): 0.0; Preemergence herbicidal rating SETVI (SETVI (Foxtail, Green) [4]; rate 0.2500 kg/ha): 7.0; Preemergence herbicidal rating ECHCG (ECHCG (Barnyardgrass); rate 0.0313 kg/ha): 0.0; Preemergence herbicidal rating ECHCG (ECHCG (Barnyardgrass); rate 0.0625 kg/ha): 0.0; Preemergence herbicidal rating ECHCG (ECHCG (Barnyardgrass); rate 0.1250 kg/ha): 0.0; Preemergence herbicidal rating ECHCG (ECHCG (Barnyardgrass); rate 0.2500 kg/ha): 1.0; CYPSE herbicidal effect rating (CYPSE (Flatsedge); 0.0313 kg/ha): 0.0; CYPSE herbicidal effect rating (CYPSE (Flatsedge); 0.0625 kg/ha): 0.0; CYPSE herbicidal effect rating (CYPSE (Flatsedge); 0.1250 kg/ha): 0.0; Preemergence herbicidal rating TRZAWR ([5]; rate 0.0313 kg/ha): 0.0; Preemergence herbicidal rating TRZAWR ([5]; rate 0.0625 kg/ha): 0.0; Preemergence herbicidal rating TRZAWR ([5]; rate 0.1250 kg/ha): 0.0; Preemergence herbicidal rating TRZAWR ([5]; rate 0.2500 kg/ha): 4.0; herbicidal rating ORYSAT (ORYSAT (Rice, Tebonnet); rate 0.0158 kg/ha): 2.0; herbicidal rating ORYSAT (ORYSAT (Rice, Tebonnet); rate 0.0315 kg/ha): 2.0; herbicidal rating ORYSAT (ORYSAT (Rice, Tebonnet); rate 0.0630 kg/ha): 4.5; Preemergence herbicidal rating ZEAMX (ZEAMX (Corn, Field) [6]; rate 0.0313 kg/ha): 0.0; Preemergence herbicidal rating ZEAMX (ZEAMX (Corn, Field) [6]; rate 0.0625 kg/ha): 0.0; Preemergence herbicidal rating ZEAMX (ZEAMX (Corn, Field) [6]; rate 0.1250 kg/ha): 1.0; Preemergence herbicidal rating ZEAMX (ZEAMX (Corn, Field) [6]; rate 0.2500 kg/ha): 4.0
